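All cell lines were grown in 96-well plates and treated with compound for 48 hours. At the GI50, growth is halved.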 The source made the active and inactive calls. Rule as the data show it: active = GI50 up to about 1.1 µM and inactive = higher.
Columns and labels:
Assay in all cases: growth of human tumour cells (NCI), 48 h
[1] = test system: EKVX
[2] = test system: NCI-H226
[3] = test system: MOLT-4
[4] = test system: SN12C
[5] = test system: SK-MEL-2
[6] = test system: SK-OV-3
[7] = test system: COLO 205
[8] = test system: 786-0
[9] = test system: HCT-116
[10] = test system: A549
[11] = test system: UACC-62
[12] = test system: SNB-19
[13] = test system: M14
[14] = test system: BT-549
[15] = test system: SW-620
[16] = test system: OVCAR-4
[17] = test system: SF-539
[18] = test system: HOP-62
[19] = test system: TK-10
[20] = test system: NCI/ADR-RES
[21] = test system: U-251
[22] = test system: UO-31
[23] = test system: NCI-H23
[24] = test system: HT-29
[25] = test system: HCT-15
[26] = test system: Hs-578T
[27] = test system: IGROV-1
[28] = test system: A498
[29] = test system: UACC-257
[30] = test system: NCI-H522
[31] = test system: SNB-75
[32] = test system: HOP-92
[33] = test system: MDA-MB-435
[34] = test system: CAKI-1
[35] = test system: SF-295
[36] = test system: MDA-MB-231
[37] = test system: T47D
[38] = test system: ACHN
[39] = test system: KM12
[40] = test system: RPMI-8226
[41] = test system: OVCAR-5
[42] = test system: OVCAR-3
[43] = test system: SF-268
[44] = test system: K562
[45] = test system: SK-MEL-28
[46] = test system: PC-3
[47] = test system: RXF 393
[48] = test system: LOX IMVI
[49] = test system: NCI-H460
[50] = test system: MDA-N
[51] = test system: HL-60
[52] = test system: OVCAR-8
[53] = test system: CCRF-CEM
[54] = test system: HCC 2998
[55] = test system: MCF7
[56] = test system: Malme-3M
[57] = test system: DU-145
[58] = test system: SK-MEL-5
[59] = test system: SR

What does the source list for `Cc1cn(C2CC(N=[N+]=[N-])C(CO)O2)c(=O)n(CCCCO)c1=O` (stereo not given)?
GI50 [1]: > 100 µM (inactive); GI50 [2]: > 100 µM (inactive); GI50 [3]: > 100 µM (inactive); GI50 [4]: > 100 µM (inactive); GI50 [5]: > 100 µM (inactive); GI50 [6]: > 100 µM (inactive); GI50 [7]: > 100 µM (inactive); GI50 [8]: > 100 µM (inactive); GI50 [9]: > 100 µM (inactive); GI50 [10]: > 100 µM (inactive); GI50 [11]: > 100 µM (inactive); GI50 [12]: > 100 µM (inactive); GI50 [13]: > 100 µM (inactive); GI50 [14]: > 100 µM (inactive); GI50 [15]: > 100 µM (inactive); GI50 [16]: > 100 µM (inactive); GI50 [17]: > 100 µM (inactive); GI50 [18]: > 100 µM (inactive); GI50 [19]: > 100 µM (inactive); GI50 [20]: > 100 µM (inactive); GI50 [21]: > 100 µM (inactive); GI50 [22]: > 100 µM (inactive); GI50 [23]: > 100 µM (inactive); GI50 [24]: > 100 µM (inactive); GI50 [25]: > 100 µM; GI50 [26]: > 100 µM (inactive); GI50 [27]: > 100 µM (inactive); GI50 [28]: > 100 µM (inactive); GI50 [29]: > 100 µM (inactive); GI50 [30]: > 100 µM (inactive); GI50 [31]: 88.3 µM (inactive); GI50 [32]: > 100 µM (inactive); GI50 [33]: > 100 µM (inactive); GI50 [34]: > 100 µM (inactive); GI50 [35]: > 100 µM (inactive); GI50 [36]: > 100 µM (inactive); GI50 [37]: > 100 µM (inactive); GI50 [38]: > 100 µM (inactive); GI50 [39]: > 100 µM (inactive); GI50 [40]: > 100 µM (inactive); GI50 [41]: > 100 µM (inactive); GI50 [42]: > 100 µM (inactive); GI50 [43]: > 100 µM (inactive); GI50 [44]: > 100 µM (inactive); GI50 [45]: > 100 µM (inactive); GI50 [46]: > 100 µM (inactive); GI50 [47]: > 100 µM (inactive); GI50 [48]: > 100 µM (inactive); GI50 [49]: > 100 µM (inactive); GI50 [50]: > 100 µM (inactive); GI50 [51]: > 100 µM (inactive); GI50 [52]: > 100 µM (inactive); GI50 [53]: > 100 µM (inactive); GI50 [54]: > 100 µM (inactive); GI50 [55]: > 100 µM (inactive); GI50 [56]: > 100 µM (inactive); GI50 [57]: > 100 µM (inactive)

With `COc1ccc(/C=C/C(=O)/C=C/c2ccc(OC)cc2OC)c(OC)c1` as the molecule, how does the GI50 [1] read?
Its GI50 is 9.08 µM (inactive).

What about the GI50 [2] of the same molecule?
The GI50 was 12.9 µM (inactive).

And the GI50 [3]?
The GI50 was 4.8 µM (inactive).

And the GI50 [4]?
The GI50 was 18.6 µM (inactive).

And the GI50 [58]?
The GI50 was 3.77 µM (inactive).

And the GI50 [5]?
The GI50 was 1.33 µM (inactive).

What about the GI50 [6] of the same molecule?
Its GI50 is 7.35 µM (inactive).

What about the GI50 [7] of the same molecule?
The GI50 was 5.61 µM (inactive).

And the GI50 [8]?
The GI50 was 5.81 µM (inactive).

What about the GI50 [9] of the same molecule?
The GI50 was 4.34 µM (inactive).

And the GI50 [10]?
Its GI50 is 14.4 µM (inactive).

And the GI50 [11]?
The GI50 was 5.6 µM (inactive).

What about the GI50 [12] of the same molecule?
Its GI50 is 12.6 µM (inactive).

And the GI50 [13]?
Its GI50 is 7.14 µM (inactive).

What about the GI50 [14] of the same molecule?
The GI50 was 4.34 µM (inactive).

And the GI50 [15]?
The GI50 was 5.32 µM (inactive).

And the GI50 [16]?
Its GI50 is 12.3 µM (inactive).

And the GI50 [17]?
Its GI50 is 15.8 µM (inactive).

What about the GI50 [18] of the same molecule?
Its GI50 is 44.5 µM (inactive).

And the GI50 [19]?
The GI50 was 14.5 µM (inactive).

What about the GI50 [59] of the same molecule?
Its GI50 is 3.64 µM (inactive).

What about the GI50 [20] of the same molecule?
Its GI50 is 8.02 µM (inactive).

And the GI50 [21]?
Its GI50 is 4.67 µM (inactive).

And the GI50 [22]?
The GI50 was 13.6 µM (inactive).

What about the GI50 [23] of the same molecule?
The GI50 was 10.2 µM (inactive).

And the GI50 [24]?
Its GI50 is 2.64 µM (inactive).

And the GI50 [25]?
Its GI50 is 3.75 µM.

What about the GI50 [26] of the same molecule?
Its GI50 is 26.3 µM (inactive).

What about the GI50 [27] of the same molecule?
The GI50 was 10.1 µM (inactive).

What about the GI50 [29] of the same molecule?
The GI50 was 1.39 µM (inactive).

And the GI50 [30]?
The GI50 was 2.41 µM (inactive).

And the GI50 [31]?
Its GI50 is 14.9 µM (inactive).

What about the GI50 [32] of the same molecule?
Its GI50 is 18.6 µM (inactive).

And the GI50 [33]?
The GI50 was 2.41 µM (inactive).

And the GI50 [34]?
The GI50 was 5.35 µM (inactive).

And the GI50 [35]?
The GI50 was 24.7 µM (inactive).

And the GI50 [36]?
Its GI50 is 29.9 µM (inactive).

What about the GI50 [37] of the same molecule?
Its GI50 is 4.47 µM (inactive).

What about the GI50 [38] of the same molecule?
The GI50 was 6.61 µM (inactive).

And the GI50 [39]?
The GI50 was 33.8 µM (inactive).

And the GI50 [40]?
The GI50 was 3.71 µM (inactive).

And the GI50 [41]?
The GI50 was 4.01 µM (inactive).

And the GI50 [42]?
Its GI50 is 2.76 µM (inactive).

And the GI50 [43]?
The GI50 was 4.55 µM (inactive).

What about the GI50 [44] of the same molecule?
The GI50 was 2.79 µM (inactive).

What about the GI50 [45] of the same molecule?
The GI50 was 4.83 µM (inactive).

And the GI50 [46]?
Its GI50 is 12.2 µM (inactive).

And the GI50 [47]?
Its GI50 is 3.24 µM (inactive).

And the GI50 [48]?
Its GI50 is 3.63 µM (inactive).

What about the GI50 [49] of the same molecule?
Its GI50 is 5.08 µM (inactive).

And the GI50 [50]?
The GI50 was 2.22 µM (inactive).

And the GI50 [51]?
The GI50 was 3.13 µM (inactive).

What about the GI50 [52] of the same molecule?
The GI50 was 11.6 µM (inactive).

And the GI50 [53]?
Its GI50 is 2.92 µM (inactive).

And the GI50 [54]?
Its GI50 is 3.23 µM (inactive).

What about the GI50 [55] of the same molecule?
Its GI50 is 2.4 µM (inactive).

What about the GI50 [56] of the same molecule?
Its GI50 is 4.19 µM (inactive).

What about the GI50 [57] of the same molecule?
Its GI50 is 12.4 µM (inactive).

— ChEMBL document CHEMBL1201862, “PubChem BioAssay data set” (2004)
